According to US12590100B2, “Tetrahydro-spiroindoline-pyrrolopyrrole-triones inhibitors of the NRF2-β-TrCP interaction for use in the treatment of fatty liver disease” (Universidad Autonoma De Madrid, priority 2021, dated 2026):

How the values were obtained:
NRF2 [1] = assay: NRF2 and HO-1 protein levels in MEFs (immunoblot); type: cell-based, mouse; settings: SFN 10 μM
Method: (§1) FIG. 4. […] MEFs in serum-depleted conditions were subjected to (A-C) 1 μM, 3 μM, or 10 μM of PHAR and 10 μM of SFN as a positive control for 16 h; or (D-F) 10 μM of PHAR for the indicated times. In both experiments, 0.1% DMSO was used as a vehicle. A), representative immunoblots of NRF2, HO1, KEAP1, LAMINB, and GAPDH as loading controls. B) and C), densitometric analysis of NRF2 and HO1 protein levels of the representative immunoblots depicted in (A), expressed as a ratio of NRF2/LAMINB or HO1/GAPDH. The data is depicted as means±SEM (n=3). Statistical analysis was performed with one-way ANOVA followed by the Bonferroni test to check inter-group differences. *p<0.05; ***p<0.001 vs. 0. D), representative immunoblots of NRF2, HO1, KEAP1, LAMINB, and GAPDH as loading controls. E) and F), Densitometric analysis of NRF2 and HO1 protein levels of the representative immunoblots of (D), expressed as a ratio of NRF2/LAMINB or HO1/GAPDH. The data is depicted as means±SEM (n=3). Statistical analysis was performed with one-way ANOVA followed by the Bonferroni test to check inter-group differences. *p<0.05; ***p<0.001 vs. 0. G), Reporter MCF-7 c32 ARE-luc cells were subjected to 1 μM, 3 μM, or 9 μM of PHAR and 10 μM of SFN as a positive control. 0.1% DMSO was used as a vehicle. Luciferase activity was measured after 16 h of treatment. The data is depicted as means±SEM (n=3). Statistical analysis was performed with one-way ANOVA followed by the Bonferroni test to check inter-group differences. **p<0.01; ***p<0.001 vs. 0. H), MTT assay to evaluate cell viability/toxicity after treatments. I), Serum-deprived MEFs were subjected to 10 μM of PHAR. The mRNA levels of Hmox1, Nqo1, Aox1, Glc, and Gclm after 8 h of treatment were determined by means of pRT-PCR and normalized by means of average LaminB, Gapdh, and β-actin. The data is depicted as means±SEM (n=3). Statistical analysis was performed with the Student's T test. *p<0.05; **p<0.01 ***p<0.001 vs. 0.
In order to empirically determine if PHAR activates NRF2, mouse embryo fibroblasts (MEFs) were treated with several doses of the compound (1 μM, 3 μM, and […]) for 16 h and with 10 μM of sulforaphane (SFN), one of main electrophilic activators of NRF2, used as a positive control.
Moreover, a time course of NRF2 activation with PHAR (10 μM for 2, 4, and 8 h) or with SFN (10 μM, 8 h) was done as a positive control.

[2] = tested on: transcriptional activity of NRF2; assay: ARE luciferase reporter assay in MCF-7 c32 ARE-LUC cells; type: cell-based; settings: 9 μM, 16 h
Method: as §1, with “G), Reporter MCF-7 c32 ARE-luc cells were subjected to 1 μM, 3 μM, or 9 μM of PHAR and 10 μM of SFN as a positive control. 0.1% DMSO was used as a vehicle.” left out, “The data is depicted as means±SEM (n=3). Statistical analysis was performed with one-way ANOVA followed by the Bonferroni test to check inter-group differences. **p<0.01; ***p<0.001 vs. 0. H), MTT assay to evaluate cell viability/toxicity after treatments. I), Serum-deprived MEFs were subjected to 10 μM of PHAR.” left out, “The data is depicted as means±SEM (n=3). Statistical analysis was performed with the Student's T test. *p<0.05; **p<0.01 ***p<0.001 vs. 0.” left out

NRF2 [3] = assay: NRF2 and HO-1 protein levels in mouse tissues after IP treatment; type: in vivo; settings: C57BL/6 mice, single IP 50 mg/kg, 120 min
Method: FIG. 9. PHAR activates NRF2 and HO-1 in liver. A), UV and MS spectrum derived from the HPLC-MS analysis of PHAR dissolved in methanol for the identification of peaks associated with the compound. A blue rectangle surrounds the mass associated with PHAR. (B-D), the mice were treated with the vehicle (Tween-80+PBS, 1:13), 50 mg/kg of PHAR, or 50 mg/kg of SFN (saline) as a positive control by means of intraperitoneal (IP) injection for 2 hours. B), HPLC-MS UV and MS spectra derived from representative liver samples of both experimental groups used for determining PHAR levels in the liver 120 min after a single IP injection of 50 mg/kg. A blue rectangle surrounds the mass associated with PHAR. C), representative immunoblots showing NRF2, HO1, and LAMINB protein levels as the liver extract loading control. D), densitometric analysis of NRF2 protein levels of the representative immunoblots shown in (C), expressed as a ratio of NRF2/LAMINB. Statistical analysis was performed with one-way ANOVA followed by the Bonferroni test to compare inter-group differences. ***p<0.001 vs. vehicle. E) and F), the mice were treated daily with vehicle (Tween-80+PBS, 1:13) or 50 mg/kg of PHAR by means of intraperitoneal injection for 5 days. E), representative immunoblots showing NRF2, HO1, and LAMINB protein levels as loading control in brain, liver and kidney. F), densitometric analysis of NRF2 and HO1 protein levels in the liver tissue of the representative immunoblots shown in (E), expressed as a ratio of NRF2/LAMINB or HO1/LAMINB levels. Statistical analysis was performed with a Student t test to compare inter-group differences. **p<0.01 vs. vehicle.
Once the mechanism of action of PHAR was deciphered, the capacity thereof to induce NRF2 levels in a murine model was evaluated. C57BL/6 mice received a single intraperitoneal (IP) injection of 50 mg/kg PHAR (Tween-80+PBS, 1:13) or 50 mg/kg of SFN (saline) as a positive control. The UV spectrum derived from the HPLC-MS study of the PHAR compound dissolved in methanol alone helped the identification of the peak associated with the compound for subsequent identification in the tissue analysis. […] Taking this as a reference point, liver tissue analysis was performed to check for the presence of PHAR therein.
For this reason, C57BL/6 mice were treated daily by IP route for 5 days with 50 mg/kg of vehicle or 50 mg/kg of PHAR.

For `C[S+]([O-])CCCCN=C=S` (stereo not shown) [SFN, sulforaphane, reference compound], the NRF2 accumulation (NRF2 [1]; 16 h, PHAR 1, 3, 9 μM) was “accumulation induced by SFN”, the “NRF2 accumulation, time course” value (NRF2 [1]; PHAR 10 μM for 2, 4, 8 h, 8 h) was “induction generated by SFN” and the “increase in luciferase activity” value [2] was “similar”. For the same compound, the “liver NRF2 levels” value (NRF2 [3]) was “accumulation caused by SFN”.
